Here are results for one substance from patent US9580487B2, “Method of treating stomach or bowel-related disorders by administering glucagon-like-peptide-2 (GLP-2) analogues” (Zealand Pharma A/S, priority 2005, dated 2017).

Entries after “also recorded” stand apart in the source; their conditions may differ. No end group written: not given here.

The subject of data set [1] is male C57BL mice. As to the kind of experiment: Dose-response effect on intestinal growth (SI mass, SI-Colon Sensitivity Index, colon and stomach mass). Type of data set: in vivo. Particulars: 5-405 nmol/kg s.c. b.i.d. for three days. The protocol: Values are means±SEM. *: P<0.05 relative to the equimolar dose of [Gly2]GLP-2 (SEQ ID NO:54).
FIG. 2 is a set of graphs showing full dose-response data of four small intestine selective compounds (compound nos. 1846 (SEQ ID NO:34), 1855 (SEQ ID NO:43), 1848 (SEQ ID NO:36), 1858 (SEQ ID NO:46)) on the Small Intestine (SI)-to-Colon Sensitivity Index mice relative to the non-selective reference compound [Gly2]GLP-2 (SEQ ID NO:54). Compounds were administered by subcutaneous injection b.i.d. for three days in C57BL mice at the following doses: 0 (vehicle), 5, 15, 45, 135, 405 nmol/kg (n=6/dose group). Responses at each dose level were compared with responses obtained at the same dose level in pair-treated mice treated with the non-selective reference compound [Gly2]GLP-2 (SEQ ID NO:54). The SI-Colon Sensitivity Index was calculated as SI-mass relative to colon mass and the Sensitivity Index at each dose level was normalized to the response observed with the non-selective reference compound [Gly2]GLP-2 (SEQ ID NO:54). […] Values are means±SEM. *: P<0.05 relative to the equimolar dose of [Gly2]GLP-2.
FIG. 4 is a set of graphs showing full dose-response data of three small intestine selective compounds (compound nos. 1857 (SEQ ID NO:45), 1820 (SEQ ID NO:10), and 1849 (SEQ ID NO:37)) on the Small Intestine (SI)-to-Colon Sensitivity Index mice relative to the non-selective reference compound [Gly2]GLP-2 (SEQ ID NO:54). Compounds were administered by subcutaneous injection b.i.d. for three days in C57BL mice at the following doses: 0 (vehicle), 5, 15, 45, 135, 405 nmol/kg (n=6/dose group). Responses at each dose level were compared with responses obtained at the same dose level in pair-treated mice treated with the non-selective reference compound [Gly2]GLP-2 (SEQ ID NO:54). The SI-Colon Sensitivity Index was calculated as SI-mass relative to colon mass and the Sensitivity Index at each dose level was normalized to the response observed with the non-selective reference compound [Gly2]GLP-2 (SEQ ID NO:54). […] Values are means±SEM. *: P<0.05 relative to the equimolar dose of [Gly2]GLP-2 (SEQ ID NO:54).
Compounds were administered by subcutaneous injection b.i.d. for three days in C57BL mice at the following doses: 0 (vehicle), 5, 15, 45, 135, 405 nmol/kg (n=6/dose group). […] Values are means±SEM. *: P<0.05 relative to the vehicle.
The dose-response effect of 1820 (SEQ ID NO:10), 1855 (SEQ ID NO:43), ZP1846 (SEQ ID NO:34), 1858 (SEQ ID NO:46), 1849 (SEQ ID NO:37), 1848 (SEQ ID NO:36), and 1857 (SEQ ID NO:45) on small intestinal mass was determined in male C57BL mice. Individual groups (n=6) of mice were given 5, 15, 45, 135 or 405 nmol/kg of each compound, s.c, twice daily for three consecutive days. For comparison purposes other groups of animals were given either equimolar doses of [Gly2]GLP-2 (SEQ ID NO:54) or vehicle (phosphate buffered saline, pH 7.4) in the same dosing regimen. Twenty-four hours after the last dose of compound had been given the mice were sacrificed and the small intestine (from the pylorus to the cecum emptied and weighed to determine the effect on small intestinal mass.

Data set [2] deals with male C57BL mice. As to the kind of experiment: Screening for intestinal growth effects (small intestine and colon mass relative to body weight, small intestine-colon sensitivity index). The class given is in vivo. The protocol:
The ability of the present compounds to stimulate intestinal growth was determined in male C57BL mice. Individual groups (n=6) of mice were given 30 nmol/kg of each compound, s.c, twice daily for ten consecutive days. For comparison purposes other groups of animals were given either an equimolar dose of [Gly2]GLP-2 (SEQ ID NO:54) or vehicle (phosphate buffered saline, pH 7.4) in the same dosing regimen. Twenty-four hours after the last dose of compound had been given the mice were sacrificed and the small intestine (from the pylorus to the cecum) and the colon (intestine distal to cecum) was emptied and weighed. To correct for slight difference in body weight (BW), the organ mass of the small intestine (SI) and colon were expressed relative to BW. The non-selective reference compound [Gly2]GLP-2 (SEQ ID NO:54) has been reported to stimulate gastrointestinal growth in both esophagus, stomach, small intestine and colon and to evaluate differences in growth pattern induced by compounds, the small intestine-colon sensitivity index of compound X was calculated as:
(SI/Colon)X/(SI/Colon)[Gly2]GLP-2%
Compounds with a small intestine-colon sensitivity greater than or equal to 1.05 were considered relatively selective for the small intestine (Table 15).
Compounds with a small intestine-colon sensitivity smaller than or equal to 0.95 were considered relatively selective for the colon (Table 15).

A short description of data set [3]: Chemical stability testing: incubation in HCl, NaOH, H2O2 or NH4HCO3 at 40° C., remaining purity by RP-HPLC. The class given is physicochemical. Conditions: 40° C., 2 mg/ml, relative to the purity at T=0. The protocol:
The GLP-2 analogues were dissolved in purified water and subsequently diluted in solutions containing HCl, NaOH, H2O2 or NH4HCO3. The solutions were incubated at 40° C. to produce hydrolysis, deamidation and oxidation products. The samples were analyzed by RP-HPLC and the percentage of remaining intact compound was determined as a measure for the relative stability. The major degradation products were tentatively identified by LC-MS.
The GLP-2 analogues tested and the reference Gly^2-GLP-2, ZP1559 (SEQ ID NO:54), were dissolved in water and subsequently diluted into solutions containing HCl, NaOH, H2O2 or NH4HCO3. The samples were incubated at 40° C. to generate hydrolysis, deamidation and oxidation products, respectively. The compounds were analysed by RP-HPLC for purity of the original main peak and by LC-MS for confirmation of the identity by mass of the main peak and major degradation products.
The GLP-2 analogues were first dissolved in MQW to a concentration of 4 mg/ml and then further diluted in the stress solutions at a 1:1 ratio (e.g. 125 μl plus 125 μl). The final concentrations were 2 mg/ml of the GLP-2 analogues for stress conditions with 0.1 M HCl, 0.01M NaOH, 0.1 M NH4HCO3 and 0.5% H2O2, respectively.
The solutions were incubated at 40° C. in the dark and then diluted in Eluent A to a concentration of 0.5 mg/ml (addition of 750 μl) prior to analyses by RP-HPLC and by LC-MS.
The RP-HPLC analyses were performed on an Agilent Series 1100 HPLC system under control of the ChemStation (Revision A.08.03 [847]) software from Agilent Technologies, Inc. The raw data and the results of the peak integration were deposited on the ChemStore C/S server by the use of Agilent Technologies Revision B01.03 software.
The results are shown in Table 9 as the compound purity measured by RP-HPLC after incubation under stress conditions. This purity is a measure for the remaining intact compound after incubation in stress solutions, relative to the purity measured a T=0.

Consider “[Gly2, Glu3, Ser8, Leu10, Ala11,16,24,28]hGLP-2(1-33)-(Lys)6-NH2 (HGEGSFSSELATILDALAARDFIAWLIATKITDKKKKKK-NH2) [Compound 1849]”, for which, in the data set with male C57BL mice [1], the “SI-Colon Sensitivity Index (SI mass relative to colon mass) relative to [Gly2]GLP-2” value is “increased maximal small intestinal sensitivity relative to [Gly2]GLP-2; also recorded: increased selectivity for causing growth of the small intestine relative to the colon” and the “Small intestinal mass (SI-BW ratio), maximal response relative to [Gly2]GLP-2” value is “maximal responses that were significantly greater than [Gly2]GLP-2”. Also, the “Small intestine mass relative to [Gly2]GLP-2” value with male C57BL mice [2] (30 nmol/kg s.c. twice daily, ten days, equimolar [Gly2]GLP-2) was “increased small intestine mass relative to [Gly2]GLP-2”. In addition, the “Preferential growth of small intestine versus colon (small intestine-colon sensitivity)” value in the data set on male C57BL mice [2] (30 nmol/kg s.c. twice daily, ten days, relative to [Gly2]GLP-2) was “supplementary increase in the weight of the small intestine without significant effecting the weight of the colon; also recorded: preferentially stimulating epithelial growth in the small intestine”. The “colon mass relative to body weight, % [Gly2]GLP-2” value with male C57BL mice [2] (male C57BL mice, 30 nmol/kg s.c. twice daily for ten days) was determined as 95 % [Gly2]GLP-2. In addition, the “small intestine-colon sensitivity index, (SI/Colon)X/(SI/Colon)[Gly2]GLP-2 %” value with male C57BL mice [2] (male C57BL mice, 30 nmol/kg s.c. twice daily for ten days, third value column) was determined as 115 % [Gly2]GLP-2. In addition, in data set [3] (RP-HPLC), the “Purity H2O2 0.5% 3 days” value is 78% and the “Purity HCl 0.1M 12 days” value was found to be 64%. Besides, in data set [3] (pH 8, RP-HPLC), the “Purity NH4HCO3 0.1M 6 days” value is listed as 86%.
